Reference: patent US20240010620A1, “ARYLAZABICYCLO[2.1.1]HEXYLMETHANOLS DERIVATIVES AND MEDICAL USES THEREOF” (ATROGI AB, priority 2020, published 2024)

Key:
Format in all cases: cell-based
L6-myotubes [1] = test: Measurement of intracellular cAMP levels (alpha screen cAMP kit); conditions: differentiated cells; agonist final concentration 1×10^−5, 15 min; 1 mM IBMX
Procedure: L6-myoblasts were grown in Dulbecco's Modified Eagle's Medium (DMEM) containing 4,5 g/I glucose supplemented with 10% fetal bovine serum, 2 mM L-Glutamine, 50 U/ml penicillin, 50 μg/ml streptomycin and 10 mM HEPES. Cells were plated at 1×10^5 cells per ml in 24-well plates. After reaching 90% confluence the cells were grown in medium containing 2% FBS for 7 days where upon cells differentiated into myotubes. Differentiated cells were serum-starved over night and stimulated with agonist, final concentration 1×10^−5, for 15 min in stimulation buffer (HBSS supplemented with 1% BSA, 5 mM HEPES and 1 mM IBMX, pH 7.4) The medium was then aspirated and to end the reaction 100 μL of 95% EtOH was added to each well of a 24-well plate and cells were kept in −20° C. over night. The EtOH was let to evaporate and 500 μL of lysis buffer (1% BSA, 5 mM HEPES and 0.3% Tween-20, pH 7.4) was added to each well before put in −80° C. for 30 min and then kept in −20° C. Intracellular cAMP levels were detected using an alpha screen cAMP kit (6760635D from Perkin Elmer). The activity for each compound is compared to that of isoproterenol.

L6-myotubes [2] = test: Glucose uptake in differentiated L6-myotubes (3H-2-deoxy-glucose); conditions: agonist final concentration 1×10^−5, 3H-2-deoxy-glucose uptake
Procedure: L6-myoblasts were grown in Dulbecco's Modified Eagle's Medium (DMEM) containing 4,5 g/I glucose supplemented with 10% fetal bovine serum, 2 mM L-Glutamine, 50 U/ml penicillin, 50 μg/ml streptomycin and 10 mM HEPES. Cells were plated at 1×10^5 cells per ml in 24-well plates. After reaching 90% confluence the cells were grown in medium containing 2% FBS for 7 days where upon cells differentiated into myotubes. Differentiated L6-myotubes were serum-starved over night in medium containing 0.5% fatty-acid free BSA and stimulated with agonist, final concentration 1×10^−5. After 1 h 40 min cells were washed with warm, glucose free medium or PBS and another portion of agonist was added to glucose free medium. After 20 min the cells were exposed to 50 nM ^3H-2-deoxy-glucose for another 10 min before washed in ice cold glucose free medium or PBS and lysed in 0.2 M NaOH for 1 h in 60° C.

L6-myotubes [3] = test: Glucose uptake in the presence of the β2-adrenergic receptor antagonist ICI-118,551; conditions: differentiated L6-myotubes; compound 1×10^−5 M; ICI-118,551 1×10^−5 M
Procedure: L6-myoblasts were grown in Dulbecco's Modified Eagle's Medium (DMEM) containing 4,5 g/I glucose supplemented with 10% fetal bovine serum, 2 mM L-Glutamine, 50 U/ml penicillin, 50 μg/ml streptomycin and 10 mM HEPES. Cells were plated at 1×10^5 cells per ml in 24-well plates. After reaching 90% confluence the cells were grown in medium containing 2% FBS for 7 days where upon cells differentiated into myotubes. Differentiated L6-myotubes were serum-starved overnight in medium containing 0.5% fatty-acid free BSA and were incubated with the β2-adrenergic receptor antagonist ICI-118,551 at a final concentration of 1×10^−5 M for 30 min. The cells were stimulated with a compound of the invention, at a final concentration of 1×10^−5 M. After 1 h 40 min the cells were washed twice with warm, glucose free medium or PBS and additional portions of the compound of the invention and the antagonist were added. After 20 min the cells were exposed to 50 nM ^3H-2-deoxyglucose for 10 min before washed with ice cold glucose free medium or PBS three times and lysed with 0.2 M NaOH, 400 μL/well, for 1 h at 60° C. The cell lysate was mixed with 4 mL scintillation buffer (Emulsifier Safe, Perkin Elmer) and the radioactivity was detected in a β-counter (Tri-Carb 4810TR, Perkin Elmer). The activity for each compound is compared to that of isoproterenol.

SMILES	Biological example 2: intracellular cAMP levels, activity compared to that of isoproterenol (L6-myotubes [1])	Biological example 1: glucose uptake, activity compared to that of isoproterenol (L6-myotubes [2])	Biological example 3: glucose uptake in the presence of ICI-118,551, activity compared to that of isoproterenol (L6-myotubes [3])
CC12CC(C1)[C@H]([C@H](O)c1cccc(F)c1)N2.Cl [Example 1, (R)-(3-Fluorophenyl)((R)-1-methyl-2-azabicyclo[2.1.1]hexan-3-yl)methanol hydrochloride]	++ (between 75 and 50%)	+++ (activity of more than 75% of that of isoproterenol)	
CC12CC(C1)[C@@H]([C@@H](O)c1cccc(F)c1)N2.Cl [Example 2, (S)-(3-Fluorophenyl)((S)-1-methyl-2-azabicyclo[2.1.1]hexan-3-yl)methanol hydrochloride]	− (less than 25%)	++ (between 75 and 50%)	
CC12CC(C1)[C@H]([C@@H](O)c1cccc(F)c1)N2.Cl [Example 3, (S)-(3-Fluorophenyl)((R)-1-methyl-2-azabicyclo[2.1.1]hexan-3-yl)methanol hydrochloride]	− (less than 25%)	+ (between 50 and 25%)	
CC12CC(C1)[C@@H]([C@H](O)c1cccc(F)c1)N2.Cl [Example 4, (R)-(3-Fluorophenyl)((S)-1-methyl-2-azabicyclo[2.1.1]hexan-3-yl)methanol hydrochloride]	− (less than 25%)	− (less than 25%)	
CC12CC(C1)[C@H]([C@H](O)c1cccc(Cl)c1)N2.Cl [Example 5, (R)-(3-Chlorophenyl)((R)-1-methyl-2-azabicyclo[2.1.1]hexan-3-yl)methanol hydrochloride]	− (less than 25%)	+++ (activity of more than 75% of that of isoproterenol)	
CC12CC(C1)[C@@H]([C@@H](O)c1cccc(Cl)c1)N2.Cl [Example 6, (S)-(3-Chlorophenyl)((S)-1-methyl-2-azabicyclo[2.1.1]hexan-3-yl)methanol hydrochloride]	− (less than 25%)	+ (between 50 and 25%)	
CC12CC(C1)[C@H]([C@@H](O)c1cccc(Cl)c1)N2.Cl [Example 7, (S)-(3-Chlorophenyl)((R)-1-methyl-2-azabicyclo[2.1.1]hexan-3-yl)methanol hydrochloride]	− (less than 25%)	++ (between 75 and 50%)	
CC12CC(C1)[C@@H]([C@H](O)c1cccc(Cl)c1)N2.Cl [Example 8, (R)-(3-Chlorophenyl)((S)-1-methyl-2-azabicyclo[2.1.1]hexan-3-yl)methanol hydrochloride]	− (less than 25%)	+ (between 50 and 25%)	
CC12CC(C1)[C@H]([C@H](O)c1ccccc1F)N2.Cl [Example 9, (R)-(2-Fluorophenyl)((R)-1-methyl-2-azabicyclo[2.1.1]hexan-3-yl)methanol hydrochloride]	+++ (activity of more than 75% of that of isoproterenol)	+++ (activity of more than 75% of that of isoproterenol)	
CC12CC(C1)[C@@H]([C@@H](O)c1ccccc1F)N2.Cl [Example 10, (S)-(2-Fluorophenyl)((S)-1-methyl-2-azabicyclo[2.1.1]hexan-3-yl)methanol hydrochloride]	− (less than 25%)	+++ (activity of more than 75% of that of isoproterenol)	
CC12CC(C1)[C@H]([C@@H](O)c1ccccc1F)N2.Cl [Example 11]	− (less than 25%)	+++ (activity of more than 75% of that of isoproterenol)	− (less than 25%)
CC12CC(C1)[C@@H]([C@H](O)c1ccccc1F)N2.Cl [Example 12, (R)-(2-Fluorophenyl)((S)-1-methyl-2-azabicyclo[2.1.1]hexan-3-yl)methanol hydrochloride]	− (less than 25%)	+++ (activity of more than 75% of that of isoproterenol)	
CC12CC(C1)[C@H]([C@H](O)c1cncc(F)c1)N2 [Example 13, (R)-(5-Fluoropyridin-3-yl)((R)-1-methyl-2-azabicyclo[2.1.1]hexan-3-yl)-methanol]	− (less than 25%)	+++ (activity of more than 75% of that of isoproterenol)	
CC12CC(C1)[C@@H]([C@@H](O)c1cncc(F)c1)N2 [Example 14, (S)-(5-Fluoropyridin-3-yl)((S)-1-methyl-2-azabicyclo[2.1.1]hexan-3-yl)-methanol]	− (less than 25%)	++ (between 75 and 50%)	
CC12CC(C1)[C@H]([C@@H](O)c1cncc(F)c1)N2 [Example 15, (S)-(5-Fluoropyridin-3-yl)((R)-1-methyl-2-azabicyclo[2.1.1]hexan-3-yl)-methanol]	− (less than 25%)	− (less than 25%)	
CC12CC(C1)[C@@H]([C@H](O)c1cncc(F)c1)N2 [Example 16, (R)-(5-Fluoropyridin-3-yl)((S)-1-methyl-2-azabicyclo[2.1.1]hexan-3-yl)-methanol]	− (less than 25%)	+ (between 50 and 25%)	
CC12CC(C1)[C@H]([C@H](O)c1cccc(N)c1F)N2.Cl [Example 17, (R)-(3-Amino-2-fluorophenyl)((R)-1-methyl-2-azabicyclo[2.1.1]hexan-3-yl)methanol hydrochloride]	− (less than 25%)	+++ (activity of more than 75% of that of isoproterenol)	
CC12CC(C1)[C@@H]([C@@H](O)c1cccc(N)c1F)N2.Cl [Example 18, (S)-(3-Amino-2-fluorophenyl)((S)-1-methyl-2-azabicyclo[2.1.1]hexan-3-yl)methanol hydrochloride]	− (less than 25%)	++ (between 75 and 50%)	
CC12CC(C1)[C@H]([C@@H](O)c1cccc(N)c1F)N2.Cl [Example 19, (S)-(3-Amino-2-fluorophenyl)((R)-1-methyl-2-azabicyclo[2.1.1]hexan-3-yl)methanol hydrochloride]	− (less than 25%)	++ (between 75 and 50%)	
CC12CC(C1)[C@@H]([C@H](O)c1cccc(N)c1F)N2.Cl [Example 20, (R)-(3-Amino-2-fluorophenyl)((S)-1-methyl-2-azabicyclo[2.1.1]hexan-3-yl)methanol hydrochloride]	− (less than 25%)	++ (between 75 and 50%)	
